Measured values as given in patent publication US6555576B1, “Method for treating exercise induced asthma” (SmithKline Beecham Corporation, priority 1999, dated 2003).
pIC50: −log10 of the molar value.

Key:
patients with EIA = assay: Exercise challenge study in patients with EIA; assay type: in vivo, human
Method: A randomized, double-blind, placebo-controlled, two-period cross-over study was conducted to assess the efficacy, safety and tolerability of cis-[4-cyano-4-(3-cyclopentyloxy-4-methoxyphenyl)cyclohexan-1-carboxylate] in patients with EIA. 27 patients with EIA were randomized to receive the compound, 10 mg BID immediate release tablet or placebo, for 7 days followed by a 7 day washout and the alternate treatment for 7 days. Exercise challenge tests were performed after a single dose on day 1, and again on day 7 (pre-dose and three hours post-dose).
The patient population consisted of non-smoking men or women, ages 18 to 60 years with EIA such that:
a) their forced expiratory volume in one second (FEV1) was greater than or equal to 70% of predicted normal,
b) the documented fall in FEV1 was greater than or equal to 15% in response to exercise testing at a screening visit, and
c) they were not taking inhaled corticosteroids or other controller medications for asthma.
The Exercise Challenge Protocol was as follows. Patients were exercised on a motorized treadmill for six minutes at target heart rate. Speed and inclination were adjusted to achieve a target heart rate for each patient of 85% of age-adjusted maximum predicted. Patients breathed compressed air (0% humidity at room temperature) during the test through a face mask. Pulmonary function tests (KoKo pneumotach) were performed 1, 5, 10, 15, 20, 30 and 45 minutes after completion of the test and continued thereafter if FEV1 had not returned to within 10% of the baseline.
The primary efficacy variable was the maximum percentage decrease (MPD) in the FEV1 in response to exercise. The results indicated significant improvement in MPD FEV1 after one dose of the compound, from a mean MPD of 32.88% to 23.57%. There was an incremental effect of the compound after 7 days of dosing with further improvement in mean MPD FEV1 to 21.8%. […] See also, Am. J. Resp. Crit. Care Med. 1998:157; A413, incorporated herein in its entirety by reference.

[1] = tested on: low affinity form of PDE 4 (LPDE 4); assay: PDE 4 catalytic activity assay (low affinity form); assay type: biochemical, human; conditions: HPDE 4 IC50 divided by LPDE 4 IC50
Method: Consequently, inhibition of recombinant PDE 4 catalytic activity primarily reflects the actions of compounds at LPDE 4. Inhibition of PDE 4 catalytic activity can thus be used as an index of the potency of compounds at LPDE 4.
Isolated human monocyte PDE 4 and hrPDE 4 was determined to exist primarily in the low affinity form.

[2] = target: T1, high affinity rolipram binding site of PDE 4 (HPDE 4); assay: [3H]-rolipram binding assay (high affinity site); conditions: competition with 1 nM [3H]-rolipram, rat brain high speed supernatants, 1 hour at 30° C.
T1 construct: Rat brain high speed supernatants were used as a source of protein
Method: Rat brain high speed supernatants were used as a source of protein. […] The assay was run for 1hour at 30° C. The reaction was terminated and bound ligand was separated from free ligand using a Brandel cell harvester. Competition for the high affinity binding site was assessed under conditions that were identical to those used for measuring low affinity PDE activity, expect that [^3H]-cAMP was not present.

acid secretion = conditions: rats, particularly in combination with an activator of adenylate cyclase such as histamine; cited from earlier work
[3] = human, in vivo; cited from earlier work

SMILES: COc1ccc(C2(C#N)CCC(C(=O)O)CC2)cc1OC1CCCC1 (stereo not drawn) [cis-[4-cyano-4-(3-cyclopentyloxy-4-methoxyphenyl)cyclohexan-1-carboxylate]]
- safety and tolerability (patients with EIA; 10 mg BID for 7 days, patients with EIA): safe and well tolerated, with no treatment-related serious adverse experiences or withdrawals
- effects in humans suffering from EIA (patients with EIA; administered to humans suffering from EIA): reduced inflammation, bronchodilation and pulmonary neuromodulation
- mean maximum percentage decrease (MPD) in FEV1 in response to exercise (patients with EIA; after 7 days of dosing, 10 mg BID): 21.8%
- mean maximum percentage decrease (MPD) in FEV1 in response to exercise (patients with EIA; after one dose, 10 mg immediate release tablet, improved from mean MPD of 32.88%): 23.57%
- patients with a fall in FEV1 of less than or equal to 15% after exercise (patients with EIA; after one week of treatment, 10 mg BID): 40%

SMILES: COc1ccc(C2CCC(c3nnn[nH]3)C2)cc1OC1CCCC1 (stereo not drawn) [1-(5-tetrazole)-3-(3-cyclopentyloxy-4-methoxyphenyl)cyclopentane]
- High/Low Ratio (IC50 high affinity / IC50 low affinity) [1]: 0.0018

SMILES: NC(=O)C(=O)NCCc1ccc(OC(F)F)c(OC(F)F)c1 [N-[2-(3,4-bisdifluoromethoxy-phenyl)ethyl]oxamide]
- High/Low Ratio (IC50 high affinity / IC50 low affinity) [1]: 0.25
- pIC50 [2]: 6.40

SMILES: CC(C)Cn1c(=O)n(C)c(=O)c2[nH]cnc21 [IBMX, reference compound]
- High/Low Ratio (IC50 high affinity / IC50 low affinity) [1]: 0.698

SMILES: OCCN(CCO)c1nc(N2CCCCC2)c2nc(N(CCO)CCO)nc(N3CCCCC3)c2n1 [dipyridamole, 2,2′,2″,2′-[(4,8-dipiperldinopyrimido[5,4-d]pyrmidine-2-6-diyl)dinitrilo]tetraethanol, reference compound]
- High/Low Ratio (IC50 high affinity / IC50 low affinity) [1]: 6.25

SMILES: COc1ccc(C2CCN(Cc3ccc(NC(=NC#N)SC)cc3)C2=O)cc1OC1CCCC1 (stereo not drawn) [3-(cyclopentyl-oxy-4-methoxyphenyl)-1-(4-N′-[N2-cyano-S-methyl-isothioureido]benzyl)-2-pyrrolidone]
- High/Low Ratio (IC50 high affinity / IC50 low affinity) [1]: 0.30

SMILES: COc1ccc(CCNC(=O)C(N)=O)cc1OC1CCCC1 [N-[2-(3-cyclopentyloxy-4-methoxyphenyl)ethyl]oxamide]
- High/Low Ratio (IC50 high affinity / IC50 low affinity) [1]: 0.013

SMILES: CCOC(=O)C=C1C[C@H](c2ccc(OC)c(OC3CCCC3)c2)CN1 [(R)-(+)-ethyl [4-(3-cyclopentyloxy-4-methoxyphenyl)pyrrolidine-2-ylidene]acetate]
- High/Low Ratio (IC50 high affinity / IC50 low affinity) [1]: 2.143

SMILES: CCCCOc1cc(CC2CNC(=O)N2)ccc1OC (stereo not drawn) [Ro 20-1724, reference compound]
- effect on acid secretion (acid secretion): enhance acid secretion
- pIC50 [2]: 6.72

SMILES: CCOC(=O)C=C1C[C@@H](c2ccc(OC)c(OC3CCCC3)c2)CN1 [(S)-(−)-ethyl [4-(3-cyclopentyloxy-4-methoxyphenyl)pyrrolidine-2-ylidene]acetate]
- High/Low Ratio (IC50 high affinity / IC50 low affinity) [1]: .98

SMILES: COc1ccc(C2CNC(=O)C2)cc1OC1CCCC1 (stereo not drawn) [rolipram]
- side effects in clinical studies [3]: has psychotropic activity and produces gastrointestinal effects, e.g., pyrosis, nausea and emesis
- effect on acid secretion (acid secretion): enhance acid secretion

SMILES: COc1ccc(C2CN(Cc3ccc(N)cc3)C(=O)N2)cc1OC1CCCC1 (stereo not drawn) [1-(4-aminobenzyl)-4-(3-cyclopentyloxy-4-methoxyphenyl)-2-imidazolidinone]
- High/Low Ratio (IC50 high affinity / IC50 low affinity) [1]: 0.07
- pIC50 [2]: 7.00

SMILES: CCCCn1c(=O)c2c(ncn2CC(C)=O)n(CCCC)c1=O [denbufylline, 7-acetonyl, 1,3-dibutyixanthine]
- side effects in clinical studies [3]: may include pyrosis, nausea and emesis
